Test results reported in BindingDB's records for doi:10.1021/jm991008q (1999).
pKi: −log10 of the molar value.

Experiments:
[1] = target: Ornithine carbamoyltransferase (Streptococcus/Enterococcus faecalis); experiment: Binding affinity against ornithine transcarbamoylase (OTC) produced by Streptococcus faecalis The buffer taken for this study is 50 mM maleate, 0.5 mM EDTA at pH 6.0.
[2] = target: Ornithine carbamoyltransferase (Streptococcus/Enterococcus faecalis); experiment: Binding affinity against ornithine transcarbamoylase (OTC) produced by Streptococcus faecalis The buffer taken for this study is 50 mM Tris.HCl, 0.5 mM EDTA at pH 7.0.
[3] = target: Ornithine carbamoyltransferase (Streptococcus/Enterococcus faecalis); experiment: Binding affinity against ornithine transcarbamoylase (OTC) produced by Streptococcus faecalis The buffer taken for this study is 50 mM Tris.HCl, 0.5 mM EDTA at pH 8.0.

Row | SMILES | pKi [1] | pKi [2] | pKi [3]
1 | N[C@@H](CCCNCP(=O)(O)CP(=O)(O)O)C(=O)O [2-Amino-5-[(hydroxy-phosphonomethyl-phosphinoylmethyl)-amino]-pentanoic acid] | 3.18 | 3.12 | 2.72
2 | CC(C)(C)OC(=O)N[C@@H](CCCNCP(=O)(O)CP(=O)(O)O)C(=O)O [(2S)-2-[(tert-butoxycarbonyl)amino]-5-[({[(hydroxyphosphinato)methyl]phosphinato}methyl)ammonio]pentanoate] | < 1.70 | 3.00 | 2.70
3 | N[C@@H](CCNCP(=O)(O)CP(=O)(O)O)C(=O)O [(2S)-2-ammonio-4-[({[(hydroxyphosphinato)methyl]phosphinato}methyl)ammonio]butanoate] | < 1.70 | 2.64 | 2.49
